According to patent US20220251610A1, “Prehydrolysate Fermentability in Biomass Pretreatment” (University of Cincinnati, priority 2021, published 2022):

What was measured:
[1] = tested on: Saccharomyces cerevisiae; assay: Yeast fermentation of prehydrolysates from dilute acid pretreatment of aspen with nucleophilic additives; type: cell-based; settings: for time at which glucose was completely consumed: 4% (w/w of dry biomass) additive in dilute acid pretreatment, glucose about 20 g/L; for final ethanol concentration / glucose consumption rate / volumetric ethanol productivity: 4% additive in pretreatment; for final ethanol concentration: 48 h fermentation; for glucose consumption rate / volumetric ethanol productivity: first 6 h of fermentation
Protocol: This analysis was carried out according to the NREL protocol. All pretreatment experiments were carried out in a Parr batch pressure vessel (model of 4520 of 2.0 L of capacity) (Parr Instrument Co., Moline, Ill.). […] All the pretreatment processes were conducted at 170° C. in 60 min. After pretreatment, the stirred reactor was quenched in a bucket with cold water. The slurry after pretreatment was separated into solid fraction and liquid fraction by vacuum filtration. The liquid fraction (prehydrolysates) was stored at 4° C. and used for subsequent analyses and fermentation. The pretreated substrates were washed with 560 mL warm water at least three times and collected by vacuum filtration. Fleischmann's pure dry yeast, Saccharomyces cerevisiae was stored at 4° C. and used for the ethanol fermentation. […] The concentration of yeast suspensions was determined by UV-spectrophotometer at 600 nm. […] Batch fermentation was taking place in a 250 mL flask with 50 mL prehydrolysates without any extra nutrients. […] Moreover, excessive CaCO3 was added to adjust the pH of prehydrolysates to 6. Then, the solution was filtered to remove CaCO3 and other impurities through the membrane filter (0.22 μm). All fermentation experiments were incubated at 30° C. and 150 rpm for 48 h in an incubator shaker (E24, New Brunswick Scientific). […] Fermentation was conducted in duplicate. The volumetric ethanol productivity (QEtOH) was calculated based on the produced ethanol in the first 6 h of fermentation as described previously. […] The sugar concentrations were detected by an Agilent 1260 HPLC system equipped with a Bio-Rad HPX-87P column (300×7.8 mm) connected to a refractive index detector (RID-10A). […] The column temperature and detector temperature were kept at 80, and 45° C., respectively. […] To examine whether adding nucleophilic additives in pretreatment can enhance prehydrolysate fermentability, cysteine, histidine, soy protein isolate (SPI) and bovine serum albumin (BSA) were added in the dilute acid pretreatment of aspen.

[2] = Xylan 1.67 g/L; cited from earlier work

| Compound | time at which glucose was completely consumed [1] [h] | final ethanol concentration [1] [g/L] | glucose consumption rate [1] [g/L/h] | volumetric ethanol productivity [1] [g/L/h] | reduction of the initial hydrolysis rate of Avicel [2] [%] |
| --- | --- | --- | --- | --- | --- |
| N[C@@H](Cc1c[nH]cn1)C(=O)O [histidine] | 6 | 8.69 | 3.22 | 1.44 |  |
| Xylan |  |  |  |  | 34.5 |
| N[C@@H](CS)C(=O)O [cysteine] | 24 | 8.87 | 1.35 | 0.51 |  |
